# Experimental data: patent US20100055217A1, “COSMETIC COMPOSITION COMPRISING A COMBINATION OF LIPOCHROMAN-6 AND AN EXTRACT OF LONGOZA, AND ITS USE” (LVMH RECHERCHE, priority 2008, published 2010)
# Test system: oxidized proteins of normal human keratinocytes (NHK)
# Assay: Level of oxidized proteins of epidermal cells (DNPH/anti-DNP immunostaining, confocal image analysis)
# Format: cell-based
# Details: for Proportion of oxidized proteins/cell, KHN 0002: NHK donor KHN 0002; for Proportion of oxidized proteins/cell, KHN 0002 / Proportion of oxidized proteins/cell, KHN 9726: 48 h treatment; for Proportion of oxidized proteins/cell, KHN 9726: NHK donor KHN 9726; for DNP marking/no. of cells / DNP marking/surface area measured / Surface area of DNP marking: NHK; for DNP marking/no. of cells / DNP marking/surface area measured / Surface area of DNP marking / Proportion of oxidized proteins/cell, Average / Reduction %/control: 48 h; for Proportion of oxidized proteins/cell, Average / Reduction %/control: average of both NHK donors; for Reduction %/control: vs control excipient
# Description: Normal human keratinocytes (NHK) isolated from two samplings of humans skin from two different donors, and referred to hereinafter as KHN002 and KHN9726, are cultured in T75 flasks in complete KSFM medium (Invitrogen GIBCO) at 37° C. and 5% of CO2, and are seeded at 20 000 cells per well in 8-well Lab-Tek II culture systems (Nalge Nunc International).
# After 48 h of culture, the cells are treated with the treatment solutions (see below).
# A solution of Lipochroman-6 at 0.004% by weight per volume (w/v) is prepared (solution A).
# This is done by dissolving 20 mg of lipochroman-6 powder (supplier: Lipotec) in 2 ml of ethanol (solution at 10 mg/ml). This solution is diluted (40 μl of the stock solution in 10 ml of KSFm medium) to give solution A.
# Furthermore, a solution of Longoza at 0.2% w/v in the KSFMc medium is prepared (solution B), from the 1% w/v solution prepared in accordance with step g) of Example 1. The 1% w/v Longoza extract solution is diluted ([…] of the 1% w/v solution in 6 ml of KSFm medium) to give said solution B.
# The treatment solutions are prepared by diluting solutions A and B, prepared above, in the KSFMc medium to give the correct percentage of each of the actives of the combination (% expressed by weight per volume).
# Each treatment is carried out on 3 wells per cell type. • control: KSFMc • solvent control: ethanol 0.1% in KSFMc medium • lipochroman 0.001% • lipochroman 0.002% • lipochroman 0.001%+Longoza 0.05% • lipochroman 0.001%+Longoza 0.1% • lipochroman 0.002%+Longoza 0.05% • lipochroman 0.002%+Longoza 0.1%
# After 48 hours of treatment, the KSFM medium is drawn off.
# The cells are rinsed with PBS (PBS Tablets, Invitrogen GIBCO), and then fixed on slides by means of formaline (Formalin Solution 10% Neutral Buffered, Sigma) for 10 minutes at ambient temperature. After rinsing with PBS, the culture chambers are filled with a 0.1% Triton solution (Triton X-100, Sigma) for 10 minutes and then rinsed with PBS.
# The culture chambers are subsequently disassembled and the slides are immersed in a solution of 2,4-dinitrophenylhydrazine (300 mg of DNPH (Fluka) in an ethanol/sulphuric acid mixture (98.5 ml/1.5 ml)) for 30 minutes.
# The DNPH reacts with the carbonyl groups of the oxidized proteins in accordance with the following reaction:
# The slides are rinsed ten times with PBS. The cells are then covered with a solution of PBS/BSA at 1% (10 g/l) by weight at ambient temperature for 30 minutes.
# The dinitrophenyl (DNP) groups bound to the oxidized proteins are recognized by a primary anti-DNP antibody.
# For this purpose, in a first step, the slides are covered with a solution of primary antibody (monoclonal mouse anti-DNP antibody, Sigma), diluted at 1/500 th in a PBS/BSA 1% solution, and are incubated for 60 minutes at ambient temperature in an oven, then rinsed with a PBS-Tween0.1% (Tween20, Merck) solution.
# In a second step, the cells are covered with a solution of secondary antibody (Alexafluor 546 Goat anti-mouse, Invitrogen) in a PBS/BSA 1% by weight solution, and are incubated in the absence of light for 60 minutes. The slides are subsequently rinsed with PBS-Tween and then with PBS.
# In a third step, a few drops of aqueous mounting medium (Fluorescent Mounting Medium, DAKO, S 3023) are applied to the slides, which are subsequently stored at 4° C. in the dark.
# The photographs are taken by confocal microscopy (Axioplan microscope, Zeiss, and Krypton-Argon Laser, BioRad) with the aid of the LaserSharp 2000 software (BioRad). For each condition, three photos are taken with the x40 lens, with the same acquisition parameters (gain, iris).
# The excitation wavelength of the fluorochrome is 546 nm and the emission wavelength is 573 nm.
# In practice, an exciting fluorescence at […] is applied by the confocal laser to the cells. The fluorochrome Alexafluor 546, which represents the oxidized proteins, emits fluorescence at 573 nm, which is recovered by a specific filter and can be observed. […]
smiles,measurement,setting,value
COc1cc2c(cc1O)CCC(C)(C)O2 [lipochroman-6],"Proportion of oxidized proteins/cell, KHN 0002",lipochroman-6 0.001% w/v,76.3
same,"Proportion of oxidized proteins/cell, KHN 0002",lipochroman-6 0.002% w/v,60.9
same,"Proportion of oxidized proteins/cell, KHN 9726",lipochroman-6 0.001% w/v,88
same,"Proportion of oxidized proteins/cell, KHN 9726",lipochroman-6 0.002% w/v,43
same,DNP marking/no. of cells,Lipochroman 0.001%,82.1
same,DNP marking/surface area measured,Lipochroman 0.001%,28.7%
same,Surface area of DNP marking,Lipochroman 0.001%,3776
same,DNP marking/no. of cells,Lipochroman 0.002%,52.0
same,DNP marking/surface area measured,Lipochroman 0.002%,18.4%
same,Surface area of DNP marking,Lipochroman 0.002%,2415
same,"Proportion of oxidized proteins/cell, Average",lipochroman-6 0.001% w/v,82.1
same,Reduction %/control,lipochroman-6 0.001% w/v,−19.43%
same,"Proportion of oxidized proteins/cell, Average",lipochroman-6 0.002% w/v,52
same,Reduction %/control,lipochroman-6 0.002% w/v,−48.97%
